This note sets out measurements from publication PMC9897788, “Design, synthesis and cytotoxic evaluation of novel bis-thiazole derivatives as preferential Pim1 kinase inhibitors with in vivo and in silico study” (Journal of Enzyme Inhibition and Medicinal Chemistry, 2023).

Test in all cases: NCI 60 cell one-dose screening (SRB)
Format in all cases: cell-based

Experiment [1] deals with MALME-3M. As to conditions: Homo sapiens, Melanoma, single dose 10 µM, 48 h, read-out: Percentage of cellular growth inhibition. An outline of the steps: (§1)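 Inhibition percentages derive from SRB-stained cell mass: growth relative to no-drug wells, computed as (Ti−Tz)/(C−Tz)×100, or (Ti−Tz)/Tz×100 when Ti<Tz, then subtracted from 100. Compound level was 10 µM for 48 h in RPMI 1640 medium with 5% serum.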

Experiment [2] deals with HCT-15. Conditions: Homo sapiens; HCT-15, Colon Cancer; single dose 10 µM, 48 h; read-out: Percentage of cellular growth inhibition. An outline of the steps: as §1
In experiment [3] the test system is BT-549. Conditions: Homo sapiens; BT-549, Breast Cancer; single dose 10 µM, 48 h; read-out: Percentage of cellular growth inhibition. In outline: as §1
Experiment [4] has as its system OVCAR-5. As to conditions: Homo sapiens; OVCAR-5, Ovarian Cancer; single dose 10 µM, 48 h; read-out: Percentage of cellular growth inhibition. In outline:
as §1

Experiment [5] deals with SK-OV-3. As to conditions: Homo sapiens; SK-OV-3, Ovarian Cancer; single dose 10 µM, 48 h; read-out: Percentage of cellular growth inhibition. An outline of the steps: as §1
For experiment [6], the system named is K-562. As to conditions: Homo sapiens, K562; K-562, Leukemia; single dose 10 µM, 48 h; read-out: Percentage of cellular growth inhibition. An outline of the steps:
as §1

In experiment [7] the test system is SN12C. Conditions: Homo sapiens, Renal Cancer, single dose 10 µM, 48 h, read-out: Percentage of cellular growth inhibition. In outline:
as §1

Experiment [8] has as its system UACC-257. As to conditions: Homo sapiens; UACC-257, Melanoma; single dose 10 µM, 48 h; read-out: Percentage of cellular growth inhibition. In outline:
as §1

The test system of experiment [9] is MDA-MB-435. Conditions: Homo sapiens; MDA-MB-435, Melanoma; single dose 10 µM, 48 h; read-out: Percentage of cellular growth inhibition. In outline: as §1
In experiment [10] the test system is NCI/ADR-RES. As to conditions: Homo sapiens, Ovarian Cancer, single dose 10 µM, 48 h, read-out: Percentage of cellular growth inhibition. An outline of the steps:
as §1

Experiment [11] deals with A549/ATCC. Conditions: Homo sapiens, Non-Small Cell Lung Cancer, single dose 10 µM, 48 h, read-out: Percentage of cellular growth inhibition. An outline of the steps: as §1
Experiment [12] deals with PC-3. As to conditions: Homo sapiens; PC-3, Prostate Cancer; single dose 10 µM, 48 h; read-out: Percentage of cellular growth inhibition. In outline:
as §1

In experiment [13] the test system is OVCAR-4. Conditions: Homo sapiens; OVCAR-4, Ovarian Cancer; single dose 10 µM, 48 h; read-out: Percentage of cellular growth inhibition. An outline of the steps: as §1
Experiment [14] relates to SK-MEL-28. Conditions: Homo sapiens; SK-MEL-28, Melanoma; single dose 10 µM, 48 h; read-out: Percentage of cellular growth inhibition. An outline of the steps:
as §1

For experiment [15], the system named is SNB-19. As to conditions: Homo sapiens; SNB-19, CNS Cancer; single dose 10 µM, 48 h; read-out: Percentage of cellular growth inhibition. In outline:
as §1

In experiment [16] the test system is HOP-92. As to conditions: Homo sapiens, HOP-92, 48 h, HOP-92, Non-Small Cell Lung Cancer, single dose 10 µM, read-out: Percentage of cellular growth inhibition. An outline of the steps: as §1
In experiment [17] the test system is IGROV1. As to conditions: Homo sapiens, IGROV-1; IGROV1, Ovarian Cancer; single dose 10 µM, 48 h; read-out: Percentage of cellular growth inhibition. In outline: as §1
The test system of experiment [18] is CAKI-1. As to conditions: Homo sapiens; CAKI-1, Renal Cancer; single dose 10 µM, 48 h; read-out: Percentage of cellular growth inhibition. An outline of the steps: as §1
In experiment [19] the test system is TK-10. As to conditions: Homo sapiens; TK-10, Renal Cancer; single dose 10 µM, 48 h; read-out: Percentage of cellular growth inhibition. An outline of the steps: as §1
For experiment [20], the system named is A498. Conditions: Homo sapiens; A498, Renal Cancer; single dose 10 µM, 48 h; read-out: Percentage of cellular growth inhibition. In outline:
as §1

As for `Fc1ccc(-c2csc(Nc3cccc(Nc4nc(-c5ccc(F)cc5)cs4)c3)n2)cc1` [6b, N^1,N^3-bis(4–(4-fluorophenyl)thiazol-2-yl)benzene-1,3-diamine], the inhibition at 10 µM in experiment [1] is 17%; in [2], 47.5%; in [3], 36%; in experiment [4], 34.5%; in experiment [5] it was 13.2%; in [6], 64%. The inhibition at 10 µM in experiment [7] was 52.8%; in experiment [8], 25.4%; in [9], 36.9%; in experiment [10], 36.3%; in experiment [11], 37.2%; in experiment [12] it was 64.8%. In addition, the inhibition at 10 µM in experiment [13] stood at 44.3%; in [14], 23.6%; in [15], 29.8%; in [16], 60.8%; in [17], 58.2%; in [18], 53.6%. In addition, the inhibition at 10 µM was found to be 5.5% in experiment [19] and 21.7% in [20].

In general, inhibition refers to the share of the control response that was lost under treatment.
